Drawing on ChEMBL document CHEMBL4325884, “Investigation of the molecular characteristics of bisindole inhibitors as HIV-1 glycoprotein-41 fusion inhibitors” (Eur J Med Chem, 2019), this text covers IC50, CC50 and Ki for 33 compounds.

Series [1] relates to Human immunodeficiency virus 1. Briefly: Antiviral activity against HIV-1 3B infected in human MAGI-CXCR4 cells assessed as reduction in viral infection after 48 hrs by fluorescence based beta-galactosidase reporter gene assay. Type of series: functional, organism-based. Conditions: Human immunodeficiency virus 1, 3B. On the technique in general: In a reporter assay the amount or activity of a reporter protein is the signal.

The test system of series [2] is Human immunodeficiency virus 1. Nature of the series: Antiviral activity against HIV-1 Bal infected in human MAGI-CCR5 cells assessed as reduction in viral infection after 48 hrs by fluorescence based beta-galactosidase reporter gene assay. Type of series: functional, organism-based. Conditions: Human immunodeficiency virus 1, Bal, MAGI-CCR5, 48 h.
Series [3] in a line: Cytotoxicity against human PBMC by MTS or resazurin dye based assay. Type of series: cell-based. In general terms: Tetrazolium assays rely on reduction of a dye to a coloured formazan, in cell work by metabolically active cells.
Series [4] deals with Envelope glycoprotein gp160 (Human immunodeficiency virus 1, UniProt Q6QLK5). Nature of the series: Binding affinity to HIV1 N-terminal 2,2-bipyridine-5-carboxylate-capped Envelope glycoprotein gp41 Fe2(env2.0)3 by C18FL probe based fluorescence quenching assay.
Envelope glycoprotein gp160, sequence (Q6QLK5 whole entry): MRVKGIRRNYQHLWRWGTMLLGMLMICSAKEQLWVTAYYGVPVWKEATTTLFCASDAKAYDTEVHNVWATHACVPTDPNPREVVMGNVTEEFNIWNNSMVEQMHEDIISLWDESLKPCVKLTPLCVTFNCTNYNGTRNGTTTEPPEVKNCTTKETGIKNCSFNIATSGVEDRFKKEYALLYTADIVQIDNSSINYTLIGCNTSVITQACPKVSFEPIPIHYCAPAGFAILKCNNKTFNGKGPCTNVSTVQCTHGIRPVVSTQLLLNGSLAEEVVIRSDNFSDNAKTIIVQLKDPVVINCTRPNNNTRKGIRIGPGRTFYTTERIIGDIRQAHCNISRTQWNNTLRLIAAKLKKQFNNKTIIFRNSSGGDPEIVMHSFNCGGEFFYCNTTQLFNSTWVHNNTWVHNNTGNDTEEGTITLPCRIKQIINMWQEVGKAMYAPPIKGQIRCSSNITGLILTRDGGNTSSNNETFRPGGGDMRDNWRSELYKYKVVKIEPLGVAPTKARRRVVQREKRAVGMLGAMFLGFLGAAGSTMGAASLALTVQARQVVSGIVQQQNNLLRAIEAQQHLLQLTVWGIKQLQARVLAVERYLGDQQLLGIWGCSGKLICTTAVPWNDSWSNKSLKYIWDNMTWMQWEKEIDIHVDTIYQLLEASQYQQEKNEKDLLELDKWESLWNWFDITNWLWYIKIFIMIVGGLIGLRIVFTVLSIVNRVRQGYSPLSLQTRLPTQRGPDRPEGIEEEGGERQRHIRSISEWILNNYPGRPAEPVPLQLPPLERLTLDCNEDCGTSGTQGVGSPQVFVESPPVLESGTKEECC
The nature of series [5]: Cytotoxicity against human MAGI cells by MTS or resazurin dye based assay. Type of series: cell-based.

For orientation: IC50 means the point on the concentration scale where inhibition reaches its midpoint. What is called CC50 is the concentration that lowers cell viability or growth by half. The low end stands for greater toxicity to the cells, the high end for lower toxicity to the cells. As usually defined, the Ki is the equilibrium dissociation constant of an inhibitor or competing ligand from its target. In the case of `COc1cccc(CNc2cccc(-c3ccc4ccn(Cc5cccc(C(=O)O)c5)c4c3)c2)c1`, the concentration for half-maximal inhibition (IC50) in series [1] and in series [2] was greater than 20 µM in each case. The compound also came in with a CC50 in series [3] greater than 10 µM. Also, the inhibition constant (Ki) in series [4] is 1.5 µM.
For the compound `CC(C)(C)OC(=O)n1ccc2ccc(-c3ccc4ccn(Cc5cccc(C(=O)O)c5)c4c3)cc21`, the half-maximal inhibitory concentration (IC50) in series [1] was determined as 1 µM; in series [2], 0.9 µM. In series [3], this compound returned a 50% cytotoxic concentration (CC50) greater than 20 µM. Moreover, the affinity in series [4] corresponds to a Ki of 1.9 µM.
For `Cn1ccc2ccc(-c3ccc4cnn(Cc5cc(F)cc(C(=O)O)c5)c4c3)cc21` the same measures were greater than 20 µM, greater than 20 µM, greater than 20 µM and 2.1 µM.
In the same order, the values of `CC(C)(C)OC(=O)Nc1cccc(Cn2ccc3ccc(-c4ccc5ccn(Cc6cccc(C(=O)O)c6)c5c4)cc32)c1` are 0.5 µM, 0.4 µM, greater than 20 µM and 1.5 µM.
In the case of `Cc1ccc(S(=O)(=O)n2ccc3ccc(-c4ccc5ccn(Cc6cccc(C(=O)O)c6)c5c4)cc32)cc1`, the results for the concentration for half-maximal inhibition (IC50) in series [1] and in series [2] were 0.9 µM and 0.8 µM, respectively. The compound further registered a 50% cytotoxic concentration (CC50) in series [3] greater than 50 µM. The compound further displayed an inhibition constant Ki in series [4] of 1.2 µM.
In the same order, the values of `COC(=O)c1cccc(Cn2ccc3ccc(-c4ccc5cnn(Cc6cccc(C(=O)O)c6)c5c4)cc32)c1` are 2.5 µM, 3.1 µM, greater than 20 µM and 3.2 µM.
As for `CC(C)(C)OC(=O)N1CCC(Cn2ccc3ccc(-c4ccc5ccn(Cc6cccc(C(=O)O)c6)c5c4)cc32)CC1`, the IC50 in series [1] and in series [2] was 0.6 µM each time. The CC50 in series [3] is greater than 20 µM. Besides, the Ki in series [4] amounted to 1.2 µM.
Consider `Cn1cc2ccc(-c3ccc4ccn(Cc5cc(F)cc(C(=O)O)c5)c4c3)cc2n1`, for which the IC50 is greater than 20 µM in series [1] and 14 µM in series [2]. The CC50 in series [3] is greater than 20 µM. Also, the inhibitory constant (Ki) in series [4] worked out at 6.4 µM.
`CN(C(=O)OC(C)(C)C)c1cccc(-c2ccc3ccn(Cc4cccc(C(=O)O)c4)c3c2)c1`: the 50% inhibitory concentration (IC50) in series [1] turned out to be 11.3 µM; in series [2] it was 15.6 µM. This compound also displayed a half-maximal cytotoxic concentration (CC50) in series [3] greater than 20 µM. For the same compound, the Ki in series [4] amounted to 1.6 µM.
For `COc1cccc(CN(C(=O)OC(C)(C)C)c2cccc(-c3ccc4ccn(Cc5cccc(C(=O)O)c5)c4c3)c2)c1` the same measures were 4.2 µM, 5.5 µM, greater than 10 µM and 0.45 µM.
Turning to `Nc1ccc(Cn2ccc3ccc(-c4ccc5ccn(Cc6cccc(C(=O)O)c6)c5c4)cc32)cc1`, the figures for the IC50 in series [1] and in series [2] were 1.3 µM and 1.1 µM, respectively. Further, the CC50 in series [3] is greater than 20 µM. The same compound came in with a Ki in series [4] of 3.1 µM.
In the same order, the values of `COc1cccc(CN(C)c2cccc(-c3ccc4ccn(Cc5cccc(C(=O)O)c5)c4c3)c2)c1` are 1.2 µM, 1.6 µM, greater than 20 µM and 0.8 µM.
With `O=C(O)c1cccc(Cn2ccc3ccc(-c4ccc5ccn(Cc6cccc(OC(F)(F)F)c6)c5c4)cc32)c1`, the IC50 in series [1] was 1.5 µM; in series [2], 1.4 µM. In series [3], this compound yielded a CC50 greater than 20 µM. The Ki in series [4] was 2.3 µM.
In the same order, the values of `COc1cc(Cn2ccc3ccc(-c4ccc5ccn(Cc6cccc(C(=O)O)c6)c5c4)cc32)cc(C(=O)O)c1` are greater than 20 µM, greater than 20 µM, greater than 20 µM and 0.8 µM.
In the case of `CC(C)(C)OC(=O)N1CCc2ccc(-c3ccc4ccn(Cc5cccc(C(=O)O)c5)c4c3)cc21`, the values for the IC50 in series [1] and in series [2] were 2.8 µM and 2.3 µM, respectively. In addition, the CC50 in series [3] is greater than 25 µM. Further, the inhibition constant (Ki) in series [4] worked out at 0.9 µM.
In the same order, the values of `CC(C)(C)OC(=O)c1cccc(Cn2ccc3ccc(-c4ccc5ccn(Cc6cccc(C(=O)O)c6)c5c4)cc32)c1` are 0.2 µM, 0.2 µM, greater than 10 µM and 0.3 µM.
In the case of `Cn1ccc2cc(F)c(-c3ccc4ccn(Cc5cc(F)cc(C(=O)O)c5)c4c3)cc21`, the half-maximal inhibitory concentration (IC50) was 7.8 µM in series [1] and 9.7 µM in series [2]. Also, the half-maximal cytotoxic concentration (CC50) in series [3] is greater than 20 µM. This compound also returned an inhibitory constant (Ki) in series [4] of 2 µM.
In the same order, the values of `Cn1ccc2ccc(-c3ccc4c(c3)N(Cc3cccc(C(=O)O)c3)CC4)cc21` are greater than 25 µM, greater than 25 µM, greater than 50 µM and 10 µM.
In the same order, the values of `COC(=O)c1cc(Cn2ccc3ccc(-c4ccc5ccn(Cc6cccc(C(=O)O)c6)c5c4)cc32)cc(C(=O)OC)c1` are 0.6 µM, 0.6 µM, greater than 20 µM and 1 µM.
As for `COC(=O)c1cccc(Cn2ncc3ccc(-c4ccc5ccn(Cc6cccc(C(=O)O)c6)c5c4)cc32)c1`, the 50% inhibitory concentration (IC50) in series [1] and in series [2] was 1.4 µM in each case. The same compound yielded a half-maximal cytotoxic concentration (CC50) in series [3] greater than 50 µM. In series [4], this compound gave an inhibition constant (Ki) of 1 µM.
For `COc1cccc(CN2CCc3ccc(-c4ccc5ccn(Cc6cccc(C(=O)O)c6)c5c4)cc32)c1`, the IC50 turned out to be 2.4 µM in series [1] and 1.9 µM in series [2]. This compound also showed a CC50 in series [3] greater than 25 µM. The compound further yielded a Ki in series [4] of 3.6 µM.
Turning to `COC(=O)c1cccc(Cn2ccc3cc(F)c(-c4ccc5ccn(Cc6cccc(C(=O)O)c6)c5c4)cc32)c1`, the IC50 in series [1] was 0.4 µM; in series [2], 0.5 µM. Also, the cytotoxic concentration (CC50) in series [3] is greater than 20 µM. Also, the Ki in series [4] amounted to 0.7 µM.
Consider `COC(=O)c1ccc(Cn2ccc3ccc(-c4ccc5ccn(Cc6cccc(C(=O)O)c6)c5c4)cc32)c(OC)c1`, for which the half-maximal inhibitory concentration (IC50) in series [1] amounted to 3.1 µM; in series [2], 4.2 µM. The 50% cytotoxic concentration (CC50) in series [3] and in series [5] was 25 µM throughout. In series [4], this compound registered a Ki of 0.4 µM.
Regarding `Cn1ncc2ccc(-c3ccc4cnn(Cc5ccc(F)c(C(=O)O)c5)c4c3)cc21`, the IC50 in series [1] and in series [2] was greater than 20 µM throughout. For the same compound, the CC50 in series [3] and in series [5] was 200 µM each time. In series [4], this compound displayed an inhibition constant Ki of 19 µM.
As for `COc1cccc(Cn2ccc3ccc(-c4ccc5c(C)cn(Cc6cccc(C(=O)O)c6)c5c4)cc32)c1`, the half-inhibitory concentration (IC50) in series [1] stood at 12.9 µM; in series [2], 10.5 µM. Moreover, the CC50 in series [3] and in series [5] was 70 µM each time. In series [4], this compound came in with a Ki of 1.2 µM.
Take `COC(=O)c1cc(F)cc(Cn2ccc3ccc(-c4ccc5ccn(Cc6cccc(C(=O)O)c6)c5c4)cc32)c1`: the IC50 was 0.5 µM in series [1] and 0.4 µM in series [2]. In series [3], the CC50 was greater than 20 µM. For the same compound, in series [4], the inhibitory constant (Ki) stood at 1 µM.
For `Cn1ncc2ccc(-c3ccc4ccn(Cc5cc(F)cc(C(=O)O)c5)c4c3)cc21` the same measures were 11.3 µM, 10.1 µM, greater than 20 µM and 2.5 µM.
In the same order, the values of `O=C(O)c1cccc(Cn2ccc3ccc(-c4ccc5ccn(Cc6cccc([N+](=O)[O-])c6)c5c4)cc32)c1` are 3.4 µM, 2.8 µM, greater than 20 µM and 2.7 µM.
As for `Cn1ccc2ccc(-c3ccc4ccn(Cc5cc(F)cc(C(=O)O)c5)c4c3)cc21`, the half-inhibitory concentration (IC50) in series [1] amounted to 9.1 µM; in series [2], 8.2 µM. Further, in series [3], the cytotoxic concentration (CC50) is greater than 20 µM. For the same compound, affinity in series [4] was put at a Ki of 3 µM.
For `CC(=O)Nc1cccc(Cn2ccc3ccc(-c4ccc5ccn(Cc6cccc(C(=O)O)c6)c5c4)cc32)c1`, the 50% inhibitory concentration (IC50) in series [1] is 4.5 µM; in series [2], 4.7 µM. The 50% cytotoxic concentration (CC50) in series [3] was greater than 20 µM. In series [4], this compound had a Ki of 0.9 µM.
In the same order, the values of `COc1cccc(Cn2ccc3ccc(-c4ccc5cn(Cc6cccc(C(=O)O)c6)nc5c4)cc32)c1` are 5.5 µM, 5.8 µM, greater than 20 µM and 1 µM.
In the same order, the values of `COc1cccc(Cn2ccc3cc(F)c(-c4ccc5ccn(Cc6cccc(C(=O)O)c6)c5c4)cc32)c1` are 7 µM, 9.4 µM, greater than 20 µM and 5 µM.
In the same order, the values of `Cc1cn(C(=O)OC(C)(C)C)c2cc(-c3ccc4ccn(Cc5cccc(C(=O)O)c5)c4c3)ccc12` are 1.7 µM, 1.2 µM, greater than 20 µM and 4.7 µM.
